Measurements from US8022051B2, “Composition for protection and improvement of skin, or reinforcing skin barrier function comprising phosphatidylserine” (Doosan Corporation, priority 2004, dated 2011).

Experiments:
[1] = tested on: skin of back region of CD-1 mouse; assay: Skin differentiation promotion in the mouse (involucrin and loricrin expression); assay type: in vivo; conditions: 0.5% aqueous solution, 50 μl two times per day for two weeks; compared to negative control group; FIG. 6
Description: In order to examine a differentiation promotion of the skin in a mouse model, a following experiment was performed.
First, 0.5% phosphatidylserine aqueous solution was applied to the skin of a back region of the mouse (CD-1 mouse, male&female, 6-8 weeks, Charles River, USA) in an amount of 50 μl two times per a day for two weeks. After that, the skin tissue of the treated region was subject to the biopsy and then the biopsy tissue was fixed to 4% formaldehyde and sliced. Then, antibodies for involucrin and loricrin were attached and an expression amount of the protein was examined.

[2] = tested on: TPA-induced ear inflammation in CD-1 mouse; assay: Alleviation of skin damage (inflammatory response) due to TPA in mouse ear; assay type: in vivo; conditions: TPA 0.03%; applied 30 μl per cm^2 at 45 minutes and 4 hours after induction; phosphatidylserine 0.5%, clofibrate 1 mM, Wy14643 1 mM; FIG. 2
Description: In order to examine a skin damage (inflammatory response)-alleviating effect of the phosphatidylserine of the invention, which damage results from skin inflammation-inducing material, a following experiment was performed in accordance with a method used by Sheu et. al. (The Journal of Investigate Dermatology, 118, pp 94-101, 2002).
First, CD-1 mouse (male & female, 6-8 weeks, Charles River, US) was used as an experimental object. TPA (12-0-tetradecanoylphorbol-13-acetate) 0.03% (wt./vol.; in acetone) solution 10 μl, which was skin inflammation-inducing material, was treated to inner and outer parts of both ears of the experimental animal. The ear was thickened due to TPA and there occurred an inflammatory response. Then, clofibrate (1 mM) and Wy14643 (1 mM) as already-known positive control group, which are agonists of PPAR-a, and the 0.5% phosphatidylserine containing aqueous solution used as the Example 1 as an experimental material were applied to both ears in an amount of 30 μl per cm^2 at times of 45 minutes and 4 hours after the inflammation was induced. After that, the treated parts of the ears were subject to a biopsy, and the biopsy parts were fixed to 4% formaldehyde and then subject to Hematoxylene & Eosin (E&H) staining. The tissue slide stained with H&E was magnified to 100 folds to check the inflammation alleviation.

fibroblasts = assay: Expression level of pro-collagen and MMP-1 in fibroblasts (western blot); assay type: cell-based; conditions: 20 μM, FIG. 10
Description: In order to examine a skin aging-suppressing efficacy of the phosphatidylserine of the invention, it was quantitatively measured the expression amounts of the pro-collagen and the matrix metalloproteinase (MMP). It was tried a protein-antibody reaction through an electrophoresis (western blot) as the quantitative method. The cultivation was performed in manners of irradiating the ultraviolet to the fibroblasts (a gift from Seoul National University, Korea) and otherwise. After that, it was treated with the phosphatidylserine (20 μM), the cell was collected to extract the protein parts. The extracted protein was dissolved in the sodium dodecyl sulfate (SDS) and then subject to the electrophoresis on the SDS-polyacrylamide gel. […] An amount of the protein was measured using the color.

Substance: phosphatidylserine
- expression amounts of involucrin and loricrin in skin [1]: remarkably increased
- inflammation alleviation (H&E stained ear tissue) [2]: inflammation was alleviated
- expression amount of MMP-1 (fibroblasts): decreased
- expression amount of pro-collagen (fibroblasts; with ultraviolet irradiation and otherwise): increased
